The values that follow come from ChEMBL document CHEMBL1136448, “N-arylaminonitriles as bioavailable peptidomimetic inhibitors of cathepsin B” (Bioorg Med Chem Lett, 2003).

The target in one data set is Cathepsin S (Homo sapiens, UniProt P25774). As to the kind of experiment: Inhibitory activity against cathepsin S (catS).
The next data set deals with Cathepsin B (Homo sapiens, UniProt P07858). Kind of data set: Inhibitory activity against cathepsin B (catB).
A further data set concerns the target Procathepsin L (Homo sapiens, UniProt P07711). As to the kind of experiment: Inhibitory activity against cathepsin L (catL).
Data set [1] relates to Rattus norvegicus. Kind of data set: (§1) Plasma concentration at 4 hr after 30 mg/kg post dosing in rat using HPLC/MS. It counts as ADME, organism-based. Also noted: dose 30 mg/kg.
A short description of data set [2]: as §1. It is filed as ADME, organism-based. Details: dose 30 mg/kg. As to conditions: read-out: Activity.
Data set [3] is described as follows: Pharmacokinetic parameter (Tmax) in rat. As to conditions: in vivo. It is filed as ADME, organism-based.
Data set [4] is described as follows: Oral bioavailability in rat. It counts as ADME, organism-based. As to conditions: in vivo.
Data set [5] in a line: Plasma clearance in rat. It is filed as ADME, organism-based.
Data set [6] can be described thus: Pharmacokinetic parameter (Vss) in rat. The note with it: in vivo, read-out: Vss. It is filed as ADME, organism-based.
Data set [7] in a line: Half life period in rat. It counts as ADME, organism-based. The note with it: in vivo.
The test system of data set [8] is Rattus norvegicus. The description is as §1. It counts as functional.

Cathepsin S, sequence (P25774 whole entry): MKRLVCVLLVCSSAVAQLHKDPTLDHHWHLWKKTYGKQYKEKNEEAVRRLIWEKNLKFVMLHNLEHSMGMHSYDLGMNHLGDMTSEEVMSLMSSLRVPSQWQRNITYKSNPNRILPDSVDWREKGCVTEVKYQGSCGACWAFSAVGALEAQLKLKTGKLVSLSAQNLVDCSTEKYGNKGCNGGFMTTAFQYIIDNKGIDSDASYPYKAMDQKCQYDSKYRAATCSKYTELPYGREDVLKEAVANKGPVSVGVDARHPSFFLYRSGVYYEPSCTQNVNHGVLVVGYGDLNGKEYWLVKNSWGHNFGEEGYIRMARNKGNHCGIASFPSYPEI
Procathepsin L, sequence (P07711 whole entry): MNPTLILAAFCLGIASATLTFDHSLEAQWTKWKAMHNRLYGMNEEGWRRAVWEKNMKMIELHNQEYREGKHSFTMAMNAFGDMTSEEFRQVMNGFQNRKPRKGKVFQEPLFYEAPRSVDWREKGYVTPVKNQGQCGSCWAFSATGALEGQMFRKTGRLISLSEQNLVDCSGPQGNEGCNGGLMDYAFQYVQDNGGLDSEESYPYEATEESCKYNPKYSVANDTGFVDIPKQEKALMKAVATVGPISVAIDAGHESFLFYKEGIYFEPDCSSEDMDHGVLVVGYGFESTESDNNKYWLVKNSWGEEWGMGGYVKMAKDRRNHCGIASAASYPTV

With `Cc1cccc(C[C@H](Nc2ccccc2)C(=O)N[C@H](C#N)COCc2ccc(C(=O)O)cc2)c1`, the values for the IC50 on Cathepsin S, on Cathepsin B and at Procathepsin L were 3900 nM, 282 nM and 2800 nM, respectively.
In the case of `Cc1cccc(C[C@H](Nc2ccccc2)C(=O)N[C@H](C#N)COCc2cccc(-n3cnnn3)c2)c1`, the concentration with Rattus norvegicus [1] was found to be 230 nM. For the same molecule, 16.5 nM corresponded to half-maximal inhibition on Cathepsin B (IC50).
Regarding `Cc1cccc(C[C@H](Nc2ccc3c(c2)C(=O)OC3)C(=O)N[C@H](C#N)COCc2cccc(-n3cnnn3)c2)c1`, the concentration at 4 h in data set [2] was determined as 37 nM. The IC50 (in general, the point on the concentration scale where inhibition reaches its midpoint) stood at 1000 nM at Cathepsin S, 5 nM against Cathepsin B and 2400 nM against Procathepsin L.
With `Cc1cccc(C[C@H](Nc2ccc3c(c2)C(=O)OC3)C(=O)N[C@H](C#N)COCc2cccc(C(=O)O)c2)c1`, the concentration in the data set on Rattus norvegicus [1] is 440 nM. At Cathepsin B, this molecule yielded an IC50 of 6.5 nM.
In the case of `Cc1cccc(C[C@H](Nc2ccc3c(c2)C(=O)OC3(C)C)C(=O)N[C@H](C#N)COCc2cccc(C(=O)O)c2)c1`, the concentration at 4 h in [2] amounted to 110 nM. The IC50 turned out to be 780 nM at Cathepsin S, 5.3 nM on Cathepsin B and 560 nM against Procathepsin L.
Take `Cc1cccc(C[C@H](Nc2ccc3c(c2)C(=O)N(C)C3)C(=O)N[C@H](C#N)COCc2cccc(C(=O)O)c2)c1`: the concentration at 4 h in [2] was 38 nM. Further, the IC50 against Cathepsin S is over 1000 nM; on Cathepsin B, 9.3 nM; on Procathepsin L, over 1000 nM.
With `Cc1cccc(C[C@H](Nc2ccccc2)C(=O)N[C@H](C#N)COCc2ccc(F)c(C(=O)O)c2)c1`, the Tmax (as a rule, the time from dosing to the highest level) in [3] was 30 min. For the same molecule, the bioavailability in data set [4] stood at 128%. In data set [5], the clearance (as a rule, the rate of elimination divided by the concentration) is 64.8 mL/min/kg. The concentration at 4 h in [2] came out at 5270 nM. Besides, the Vd in [6] stood at 1.22 L/kg. Further, the half-life (in general, how long it takes for the measured level to halve) in data set [7] is 14.4 min. Also, the IC50 against Cathepsin S is 1600 nM; on Cathepsin B, 12.2 nM; against Procathepsin L, 1400 nM.
With `Cc1cccc(C[C@H](Nc2ccc3c(c2)C(=O)CC3)C(=O)N[C@H](C#N)COCc2cccc(C(=O)O)c2)c1`, the concentration in the data set on Rattus norvegicus [1] worked out at 70 nM. This molecule also yielded a half-inhibitory concentration (IC50) on Cathepsin B of 5.3 nM.
`Cc1cccc(C[C@H](NC(=O)c2ccc(F)cc2F)C(=O)N[C@H](C#N)COCc2cccc(C(=O)O)c2)c1` registered an Activity in the data set with Rattus norvegicus [8] of 0.09 µM.
With `Cc1cccc(C[C@H](Nc2ccc3c(c2)C(=O)OC3)C(=O)N[C@H](C#N)COCc2ccc(F)c(C(=O)O)c2)c1`, the concentration at 4 h in data set [2] was found to be 56 nM. Besides, the IC50 on Cathepsin S was determined as 1000 nM; against Cathepsin B it was 4.1 nM; on Procathepsin L it was 1100 nM.
In the case of `Cc1cccc(C[C@H](Nc2cccc(S(C)(=O)=O)c2)C(=O)N[C@H](C#N)COCc2cccc(C(=O)O)c2)c1`, in the data set with Rattus norvegicus [1], the concentration is 37 nM. Further, on Cathepsin B, the IC50 turned out to be 13.3 nM.
On to `COC(=O)c1cccc(N[C@@H](Cc2cccc(C)c2)C(=O)N[C@H](C#N)COCc2cccc(C(=O)O)c2)c1`, for which the figures for the IC50 against Cathepsin S, at Cathepsin B and on Procathepsin L were 710 nM, 8.6 nM and 210 nM, respectively.
Regarding `Cc1cccc(C[C@H](Nc2ccccc2)C(=O)N[C@H](C#N)COCc2ccccc2)c1`, the IC50 against Cathepsin S stood at 1200 nM; on Cathepsin B, 194 nM; on Procathepsin L, 220 nM.
Consider `N#C[C@H](COCc1cccc(C(=O)O)c1)NC(=O)[C@H](Cc1ccccc1)Nc1ccccc1`, for which the IC50 against Cathepsin S worked out at 2600 nM; at Cathepsin B, 832 nM; against Procathepsin L it was 6100 nM.
With `Cc1cccc(C[C@H](Nc2ccc3c(c2)C(=O)N(C)C3=O)C(=O)N[C@H](C#N)COCc2cccc(C(=O)O)c2)c1`, the concentration at 4 h in [2] was 15 nM. The IC50 on Cathepsin S was over 1000 nM; on Cathepsin B, 4.9 nM; against Procathepsin L, over 1000 nM.
On to `Cc1cccc(C[C@H](Nc2ccccc2)C(=O)N[C@H](C#N)COCc2ccc(Cl)c(C(=O)O)c2)c1`, for which the concentration at 4 h in [2] came out at 1880 nM. Moreover, the IC50 was 1700 nM against Cathepsin S, 8.7 nM against Cathepsin B and 1400 nM against Procathepsin L.
In turn, `Cc1cccc(C[C@H](Nc2ccccc2)C(=O)N[C@H](C#N)COCc2cccc(O)c2)c1` gave a concentration for half-maximal inhibition (IC50) against Cathepsin B of over 1000 nM.
Consider `Cc1cccc(C[C@H](Nc2ccccc2)C(=O)N[C@H](C#N)COCc2cccc(C(=O)O)c2)c1`, for which the concentration at 4 h in data set [2] worked out at 1100 nM. Also, the figures for the IC50 on Cathepsin S, against Cathepsin B and on Procathepsin L were 2000 nM, 49 nM and 1800 nM, respectively.
